The species entered for one experiment is Rattus norvegicus. Put plainly: Tested in vitro for growth hormone release from rat pituitary cells. Type of experiment: functional, cell-based, Pituitary gland cell. The conditions noted are these: Rattus norvegicus, Pituitary gland cell.
The term EC50 denotes the midpoint of the concentration-response curve. The low end stands for higher potency in that assay, the high end for lower potency in that assay. `CCOC(=O)[C@H](CCc1ccccc1)NC(=O)[C@@H](Cc1c[nH]c2ccccc12)NC(=O)C(C)(C)N` returned an EC50 of 3 nM.
In turn, `CCOC(=O)[C@@H](CCc1ccccc1)NC(=O)[C@@H](Cc1cccc2ccccc12)NC(=O)C(C)(C)N` displayed an EC50 above 50 nM.
Regarding `CC(C)(N)C(=O)N[C@H](Cc1c[nH]c2ccccc12)C(=O)NCCCCc1ccccc1`, a half-maximal effect (EC50) was put at 700 nM.
On to `CCOC(=O)[C@H](Cc1ccccc1)N(C)C(=O)[C@@H](Cc1c[nH]c2ccccc12)NC(=O)C(C)(C)N`, for which the response was half-maximal at 40 nM (EC50).
`COC(=O)[C@@H](CCc1ccccc1)NC(=O)[C@@H](Cc1c[nH]c2ccccc12)NC(=O)C(C)(C)N`: the EC50 is 18 nM.
In turn, `CCOC(=O)[C@@H](Cc1ccccc1)NC(=O)[C@@H](Cc1c[nH]c2ccccc12)NC(=O)C(C)(C)N` had an EC50 of 350 nM.
In turn, `CC(C)(N)C(=O)N[C@H](Cc1c[nH]c2ccccc12)C(=O)NCc1ccc2ccccc2c1` showed an EC50 of 85 nM.
The compound `CCOC(=O)[C@H](CCCc1ccccc1)NC(=O)[C@@H](Cc1c[nH]c2ccccc12)NC(=O)C(C)(C)N` returned an EC50 of 820 nM.
On the same count and under the same terms, then `CCOC(=O)[C@@H](CCCc1ccccc1)NC(=O)[C@@H](Cc1c[nH]c2ccccc12)NC(=O)C(C)(C)N`, with 1140 nM.
Consider `CCOC(=O)[C@H](Cc1ccc2ccccc2c1)NC(=O)[C@@H](Cc1c[nH]c2ccccc12)NC(=O)C(C)(C)N`, for which the 50% effective concentration (EC50) is 2000 nM.
The compound `CC(C)OC(=O)[C@@H](CCc1ccccc1)NC(=O)[C@@H](Cc1c[nH]c2ccccc12)NC(=O)C(C)(C)N` had an EC50 of 4 nM.
On to `CCNC(=O)[C@@H](CCc1ccccc1)NC(=O)[C@@H](Cc1c[nH]c2ccccc12)NC(=O)C(C)(C)N`, for which the midpoint of the response, the EC50, lay at 246 nM.
Compound `CCOC(=O)[C@H](CCc1ccccc1)N(C)C(=O)[C@@H](Cc1c[nH]c2ccccc12)NC(=O)C(C)(C)N` yielded an EC50 of 270 nM.
For the compound `CCOC(=O)[C@H](Cc1ccccc1)NC(=O)[C@@H](Cc1c[nH]c2ccccc12)NC(=O)C(C)(C)N`, the response was half-maximal at 240 nM (EC50).
`CCOC(=O)[C@H](Cc1cccc2ccccc12)NC(=O)[C@@H](Cc1c[nH]c2ccccc12)NC(=O)C(C)(C)N`: the EC50 amounted to 40 nM.
Compound `CC(C)(N)C(=O)N[C@H](Cc1c[nH]c2ccccc12)C(=O)NCCc1cccc2ccccc12` registered a 50% effective concentration (EC50) of 860 nM.
For `CC(C)(N)C(=O)N[C@H](Cc1c[nH]c2ccccc12)C(=O)N[C@H](CCc1ccccc1)C(=O)O`, the EC50 is above 500 nM.
For the compound `CC(C)(N)C(=O)N[C@H](Cc1c[nH]c2ccccc12)C(=O)N[C@H](CCc1ccccc1)C(=O)OCc1ccccc1`, the EC50 amounted to 500 nM.
On the same count and under the same terms, under `CC(C)(N)C(=O)N[C@H](Cc1c[nH]c2ccccc12)C(=O)NCCCc1ccccc1` stands 390 nM.

Staying with this experiment, now noted: pituitary gland cell.
In turn, `CCOC(=O)[C@@H](CCc1ccccc1)NC(=O)[C@@H](Cc1c[nH]c2ccccc12)NC(=O)C(C)(C)N` yielded an EC50 of 50 nM.

For a further experiment, the species on record is Rattus norvegicus. The experiment is described as follows: Compound was tested in vitro for growth hormone release from rat pituitary cells; Inactive. Type of experiment: functional, cell-based. The conditions noted are these: pituitary gland cell.
Consider `CCOC(=O)[C@@H](CCc1ccccc1)NC(=O)[C@H](Cc1c[nH]c2ccccc12)NC(=O)C(C)(C)N`, for which the EC50 entry is reported as “Not Active”.
In the case of `CC(C)(N)C(=O)N[C@H](Cc1c[nH]c2ccccc12)C(=O)NCc1cccc2ccccc12`, the EC50 result is “Not Active”.
The same measure, in the same setting: then `CCOC(=O)[C@@H](CCc1ccccc1)NC(=O)[C@@H](Cc1ccc2ccccc2c1)NC(=O)C(C)(C)N`, with “Not Active”; and `CC(C)(N)C(=O)N[C@H](Cc1c[nH]c2ccccc12)C(=O)NCCc1ccccc1`, with “Not Active”.

Source of the values: ChEMBL document CHEMBL1131406, “Tripeptide growth hormone secretagogues” (Bioorg Med Chem Lett, 1998).
